Assay results as given in patent publication US20210130346A1, “Bromodomain Inhibitors” (AbbVie Inc., priority 2017, published 2021).
pKi: −log10 of the molar value. Values belong to the compound of their own block, whether it stands above or below them.

Assays:
[1] = biological target: BRD4 (BDI_K57-E168) (Homo sapiens, UniProt O60885); assay: TR-FRET bromodomain binding assay, BRD4 first bromodomain (BDI); conditions: mean Ki; 12 nM His tagged BRD4 (BDI_K57-E168), 100 nM Alexa647 probe; Ki calculated from IC50, probe Kd and probe concentration
[2] = system: SKM-1 xenograft tumors; assay: Growth inhibition of SKM-1 xenograft tumors implanted in mice; format: in vivo, female SCID mice; conditions: SCID mice
Protocol: The effect of compounds of the examples to inhibit the growth of SKM-1 xenograft tumors implanted in mice was evaluated. A suspension of cancer cells (5×10^6 per 0.1 mL) prepared in RPMI culture medium (Invitrogen, Carlsbad, Calif.) was diluted 1:1 with a solution of Matrigel™ (BD Biosciences, Franklin Lakes, N.J.) and inoculated subcutaneously into the right hind flank of female SCID (Charles River Labs) mice. Randomization into treatment and vehicle control groups (8/group) occurred when the mean tumor volume reached approximately 250 mm^3. Example 3 was formulated in 10% ethanol, 30% PEG 400, 60% Phosol-50PG. Example 34 was formulated as a nanosuspension (2% low viscosity hydroxypropylcellulose polymer/0.2% sodium dodecyl sulfate in water). Administration of compound or vehicle was initiated on the day following randomization and continued for […]. Tumors were measured twice a week throughout the treatment period using a pair of calipers and tumor volumes were calculated according to the formula V=L×W^2/2 (V: volume, mm^3; L: length, mm. W: width, mm). Tumor growth inhibition was calculated based on the mean tumor volume measured on the first day that the mean volume of the vehicle group exceeded 2000 mm^3 according to the formula: % TGI=100−(100×(mean tumor volume of treatment group/mean tumor volume of control group))

pKi [1]: 5.49
SMILES: CN1C(=O)[C@]2(C[C@@H]2c2cn(C)c(=O)c3[nH]c(C(=O)NC4CC4)cc23)c2ccccc21 [Example 3, N-cyclopropyl-6-methyl-4-[(1S,2R)-1′-methyl-2′-oxo-1′,2′-dihydrospiro[cyclopropane-1,3′-indol]-2-yl]-7-oxo-6,7-dihydro-1H-pyrrolo[2,3-c]pyridine-2-carboxamide]
% TGI ([2]; dose 5 mg/kg/d, formulated in 10% ethanol, 30% PEG 400, 60% Phosol-50PG): 27%
% TGI ([2]; dose 15 mg/kg/d, formulated in 10% ethanol, 30% PEG 400, 60% Phosol-50PG): 33%
% TGI ([2]; dose 45 mg/kg/d, formulated in 10% ethanol, 30% PEG 400, 60% Phosol-50PG): 43%
% TGI ([2]; dose 100 mg/kg/d, formulated in 10% ethanol, 30% PEG 400, 60% Phosol-50PG): 58%
% TGI ([2]; dose 150 mg/kg/d, formulated in 10% ethanol, 30% PEG 400, 60% Phosol-50PG): 52%

pKi [1]: 6.36
SMILES: CN1C(=O)[C@]2(C[C@@H]2c2cn(C)c(=O)c3[nH]c(-c4cnn(C)c4)cc23)c2ccccc21 [Example 34, (1S,2R)-1′-methyl-2-[6-methyl-2-(1-methyl-1H-pyrazol-4-yl)-7-oxo-6,7-dihydro-1H-pyrrolo[2,3-c]pyridin-4-yl]spiro[cyclopropane-1,3′-indol]-2′(1H)-one]
% TGI ([2]; dose 38 mg/kg/d, formulated as a nanosuspension): 42%
% TGI ([2]; dose 75 mg/kg/d, formulated as a nanosuspension): 74%

pKi [1]: < 4.89
SMILES: CN1C(=O)[C@]2(C[C@@H]2c2cn(C)c(=O)c3[nH]c(-c4ccnc(C(F)(F)F)c4)cc23)c2ccccc21 [Example 52, (1S,2R)-1′-methyl-2-{6-methyl-7-oxo-2-[2-(trifluoromethyl)pyridin-4-yl]-6,7-dihydro-1H-pyrrolo[2,3-c]pyridin-4-yl}spiro[cyclopropane-1,3′-indol]-2′(1H)-one]

pKi [1]: 5.55
SMILES: CN1C(=O)[C@@]2(C[C@H]2c2cn(C)c(=O)c3[nH]c(-c4ccnc(C(F)(F)F)c4)cc23)c2ccccc21 [Example 53, (1R,2S)-1′-methyl-2-{6-methyl-7-oxo-2-[2-(trifluoromethyl)pyridin-4-yl]-6,7-dihydro-1H-pyrrolo[2,3-c]pyridin-4-yl}spiro[cyclopropane-1,3′-indol]-2′(1H)-one]
